One experiment has as its system mImpα1ΔIBB. Nature of the experiment: In vitro GST pull-down with mouse Impα1ΔIBB. The class given is binding. Conditions: 100 μg GST-cNLS, 250 μg Impα, glutathione resin, 4°C 1 hr, 20 mM Tris pH7.5, […] NaCl, 1 mM DTT; SDS-PAGE. How it is done:
(§1) Glutathione resin (Pierce) was incubated with 100 μg of purified GST-cNLS or GST, and 250 μg of ImpA or 500 μg of ImpB at 4°C for 1 hr. Unbound protein was removed by washing beads 5 times in 500 μL binding buffer, and the bound proteins were eluted in binding buffer supplemented with 10 mM glutathione. The samples were analysed using SDS-PAGE, input lanes correspond to 1% of incubated samples and pull-down lanes correspond to 8% of eluted protein.

The test system of a further experiment is human Impβ. Nature of the experiment: In vitro GST pull-down with human Impβ. The format is binding. Conditions: GST-NLS with His-tagged human Impβ (500 μg), 4°C 1 hr; S1 Fig. How it is done:
as §1
(§2) Pull-downs with GST-NLS or GST-mImpα1 full-length with His-tagged mouse and human Impβ. GST and mImpα1 served as the negative and positive controls, respectively. (EPS) Click here for additional data file.

A further experiment concerns mouse Impβ. Description: In vitro GST pull-down with mouse Impβ. The class given is binding. Conditions: GST-NLS with His-tagged mouse Impβ (500 μg), 4°C 1 hr; S1 Fig. The procedure:
as §1, §2

Another experiment deals with hImpα1ΔIBB. Nature of the experiment: In vitro GST pull-down with human Impα1ΔIBB. The class given is binding. The following applies: 100 μg GST-cNLS, 250 μg Impα, glutathione resin, 4°C 1 hr; SDS-PAGE. The procedure:
as §1

The next experiment relates to HeLa cells. Conditions: region comprising residues 1178–1187 of the human protein; cited from earlier work. The source says:
hTNRC6A cNLS (^1179[…]^1187; numbering according to isoform 1 and corresponds to ^926[…]^934 in isoform 2; Fig 1A) is located between the Ago-binding and UBA regions of the protein [35]. This motif is strictly conserved between mouse and humans (Fig 1B), is present in bats and hedgehogs, but appears to be absent in fish and insects.

Experiment [1] relates to nuclear accumulation of a fluorescent reporter. The following applies: template SSGA####AG, Lys/Arg combinations predicted to bind at P2-P5; cited from earlier work. How it is done: A detailed mutational analysis of a template monopartite NLS sequence has been reported, where all possible 16 Lys and/or Arg combinations (SSGA####AG, where # represents either Lys or Arg) predicted to bind at the P2-P5 pockets, were tested for their nuclear import activity.

Where no end group is shown, it is not given here.

Turning to “NLS mutant: GST-TNRC6A cNLS with the four arginine residues substituted to Ala, as previously described (SGKKAAAEA; also: fused to GST (GST not in chain), ends not given here)”, the “binding to mImpα1ΔIBB in GST pull-down” value in the experiment on mImpα1ΔIBB was “binding was disrupted”.

As for “P2 mutant: GST-TNRC6A cNLS with mTNRC6A Lys1167 mutated to Ala (SGKARRRER; also: fused to GST (GST not in chain), ends not given here)”, the “binding to mImpα1ΔIBB in GST pull-down” value with mImpα1ΔIBB is on record as “completely abolished binding”.

“SGKKRRRER [GST-TNRC6A cNLS, GST fusion of TNRC6A nuclear localisation signal, residues 1164–1172 of mouse TNRC6A (1179–1187 of human)]”: the “pull-down of human Impβ” value with human Impβ is listed as “not sufficient to pull-down”. For the same substance, the “binding to mImpα1ΔIBB in GST pull-down” value with mImpα1ΔIBB is “sufficient to interact”. In the experiment with mouse Impβ, the “pull-down of mouse Impβ” value is reported as “not sufficient to pull-down”. The “binding to hImpα1ΔIBB in GST pull-down” value with hImpα1ΔIBB is “sufficient to interact”.

As to “SGKKRRRER [hTNRC6A cNLS, human TNRC6A cNLS, residues 1179–1187 of isoform 1; strictly conserved with mouse; tested earlier on a GFP reporter]”, the “nuclear localisation of a GFP reporter” value with HeLa cells is recorded as “sufficient to induce the nuclear localisation”.

As to SSGAKRRRAG, the “nuclear accumulation of a fluorescent reporter” value in experiment [1] is on record as “Complete nuclear accumulation”.

The values above are taken from paper PMC5570423, “Structural characterisation of TNRC6A nuclear localisation signal in complex with importin-alpha” (PLoS ONE, 2017).
